From patent EP2687213B1, “Solid forms comprising (+)-2-[1-(3-ethoxy-4-methoxyphenyl)-2-methylsulfonylethyl]-4-acetylaminoisoindoline-1,3-dione, compositions thereof, and uses thereof” (CELGENE CORPORATION, priority 2008, dated 2009)
Entries after “also recorded” stand apart in the source; their conditions may differ.

Columns and labels:
[1] = Hygroscopicity studies (DVS moisture sorption/desorption); type: physicochemical; conditions: for solid-state transformation after full adsorption/desorption cycle (XRPD): DVS, 0% to 95% RH and back; for mass change of the starting mass of the sample: RH increased from about 0% to about 95% RH, about 25 °C; for hygroscopicity: moisture sorption analysis, 0% to 95% RH
Method: Hygroscopicity studies. The hygroscopicity of various solid forms was studied using a Surface Measurement Systems DVS instrument. Typically a sample size of between about 10-50 mg was loaded into the DVS instrument sample pan and the sample was analyzed on a DVS automated sorption analyzer at about 25 °C. The relative humidity was increased in increments of about 10% from about 0% to about 95% RH. The relative humidity was then decreased in a similar manner to accomplish a full adsorption/desorption cycle. The mass was recorded at periodic intervals throughout the experiment.

[2] = Solid form stability studies (XRPD); type: physicochemical
Method: Stability Studies. The stabilities of Forms A, B, C and D were studied by exposing the solid samples to the stress condition of 40 °C / 75% RH for four weeks. Moreover, the stabilities of Forms A, B, C and D in different solvents were studied by equilibration in different solvents at 40 °C for four weeks. The slurries then were filtered and dried in the air. Solid samples obtained from the stability experiments were analyzed by XRPD and DSC.

[3] = Compression studies (2000 psi, XRPD); conditions: 2000 psi for at least one minute
[4] = Solid form interconversion studies (slurry, XRPD); type: physicochemical; conditions: EQ in acetone:ethanol (1:1) at 25 °C, at least 2 days
Method: Interconversion Studies. Interconversion experiments were performed by making slurries of a solid form in a saturated solvent. The slurries were agitated for at least 2 days at about 25 °C. The saturated solution was removed by filtration and the solid was dried in the air.

[5] = target: PDE5 from human platelets (Homo sapiens, UniProt O76074); assay: PDE5 enzyme assay; type: biochemical; conditions: from PDE inhibition data of Table 1
[6] = target: PDE3 from human platelets (Homo sapiens, UniProt Q14432); assay: PDE3 enzyme assay; type: biochemical; conditions: from PDE inhibition data of Table 1
[7] = target: T1, PDE6 from bovine retinal rod outer segments (Bos taurus, UniProt P11541+P23439); assay: PDE6 enzyme assay; type: biochemical; conditions: from PDE inhibition data of Table 1
T1 construct: PDE6 from bovine retinal rod outer segments; from tissue; host or cells: bovine retinal rod outer segments
T1 sequence (P11541 2-856 limits assumed): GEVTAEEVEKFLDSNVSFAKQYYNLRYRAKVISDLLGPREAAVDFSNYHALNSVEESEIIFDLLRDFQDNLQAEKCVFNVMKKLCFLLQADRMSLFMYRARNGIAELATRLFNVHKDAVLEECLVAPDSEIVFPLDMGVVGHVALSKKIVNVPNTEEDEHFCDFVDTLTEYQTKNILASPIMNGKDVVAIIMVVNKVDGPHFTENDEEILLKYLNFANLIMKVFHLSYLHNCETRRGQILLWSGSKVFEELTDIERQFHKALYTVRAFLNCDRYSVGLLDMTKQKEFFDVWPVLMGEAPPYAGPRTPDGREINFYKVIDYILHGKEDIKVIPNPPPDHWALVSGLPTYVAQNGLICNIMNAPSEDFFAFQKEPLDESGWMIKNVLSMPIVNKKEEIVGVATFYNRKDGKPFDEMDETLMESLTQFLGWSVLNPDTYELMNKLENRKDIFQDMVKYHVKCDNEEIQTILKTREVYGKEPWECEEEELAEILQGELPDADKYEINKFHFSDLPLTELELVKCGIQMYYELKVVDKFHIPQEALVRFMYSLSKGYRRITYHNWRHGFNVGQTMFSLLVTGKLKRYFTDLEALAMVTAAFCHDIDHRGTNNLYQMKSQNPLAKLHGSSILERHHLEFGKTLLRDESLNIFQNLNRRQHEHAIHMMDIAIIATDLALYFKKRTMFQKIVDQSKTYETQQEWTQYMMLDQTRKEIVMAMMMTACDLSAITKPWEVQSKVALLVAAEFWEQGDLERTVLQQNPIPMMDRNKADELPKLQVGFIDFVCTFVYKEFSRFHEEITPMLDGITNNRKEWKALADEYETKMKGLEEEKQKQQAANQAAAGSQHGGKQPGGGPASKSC
T1 sequence (P23439 2-850 limits assumed): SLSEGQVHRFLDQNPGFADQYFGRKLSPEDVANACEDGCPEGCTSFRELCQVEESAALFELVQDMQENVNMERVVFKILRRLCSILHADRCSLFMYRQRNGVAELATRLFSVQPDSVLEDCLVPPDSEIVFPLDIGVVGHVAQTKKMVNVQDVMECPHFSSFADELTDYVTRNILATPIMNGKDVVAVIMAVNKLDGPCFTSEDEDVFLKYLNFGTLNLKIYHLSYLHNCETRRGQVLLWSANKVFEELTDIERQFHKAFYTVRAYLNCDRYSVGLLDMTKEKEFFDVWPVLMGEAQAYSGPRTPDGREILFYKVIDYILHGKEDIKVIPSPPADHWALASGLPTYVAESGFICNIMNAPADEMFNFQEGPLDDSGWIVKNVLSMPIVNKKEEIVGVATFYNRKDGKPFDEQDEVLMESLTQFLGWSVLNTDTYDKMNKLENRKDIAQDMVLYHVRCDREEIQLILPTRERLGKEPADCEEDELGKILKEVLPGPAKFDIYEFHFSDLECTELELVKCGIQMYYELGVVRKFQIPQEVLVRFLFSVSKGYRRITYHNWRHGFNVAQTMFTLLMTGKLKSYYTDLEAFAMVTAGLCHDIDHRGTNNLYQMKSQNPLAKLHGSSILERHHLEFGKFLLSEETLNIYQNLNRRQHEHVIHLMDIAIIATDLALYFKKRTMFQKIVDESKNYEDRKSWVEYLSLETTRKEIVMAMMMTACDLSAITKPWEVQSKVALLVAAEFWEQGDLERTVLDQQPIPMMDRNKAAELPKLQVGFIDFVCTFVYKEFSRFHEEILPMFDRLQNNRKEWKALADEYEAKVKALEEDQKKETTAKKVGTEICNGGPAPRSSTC

human PDE2 = human PDE2 (Homo sapiens, UniProt O00408); assay: PDE2 enzyme assay; type: biochemical; conditions: from PDE inhibition data of Table 1
bovine PDE1 = assay: PDE1 enzyme assay; type: biochemical; conditions: from PDE inhibition data of Table 1
[8] = EQ in ethanol at 40 °C for 4 weeks
[9] = EQ in heptane at 40 °C for 4 weeks
[10] = EQ in toluene at 40 °C for 4 weeks
[11] = EQ in water at 40 °C for 4 weeks

Sequence of human PDE2 (O00408 whole entry): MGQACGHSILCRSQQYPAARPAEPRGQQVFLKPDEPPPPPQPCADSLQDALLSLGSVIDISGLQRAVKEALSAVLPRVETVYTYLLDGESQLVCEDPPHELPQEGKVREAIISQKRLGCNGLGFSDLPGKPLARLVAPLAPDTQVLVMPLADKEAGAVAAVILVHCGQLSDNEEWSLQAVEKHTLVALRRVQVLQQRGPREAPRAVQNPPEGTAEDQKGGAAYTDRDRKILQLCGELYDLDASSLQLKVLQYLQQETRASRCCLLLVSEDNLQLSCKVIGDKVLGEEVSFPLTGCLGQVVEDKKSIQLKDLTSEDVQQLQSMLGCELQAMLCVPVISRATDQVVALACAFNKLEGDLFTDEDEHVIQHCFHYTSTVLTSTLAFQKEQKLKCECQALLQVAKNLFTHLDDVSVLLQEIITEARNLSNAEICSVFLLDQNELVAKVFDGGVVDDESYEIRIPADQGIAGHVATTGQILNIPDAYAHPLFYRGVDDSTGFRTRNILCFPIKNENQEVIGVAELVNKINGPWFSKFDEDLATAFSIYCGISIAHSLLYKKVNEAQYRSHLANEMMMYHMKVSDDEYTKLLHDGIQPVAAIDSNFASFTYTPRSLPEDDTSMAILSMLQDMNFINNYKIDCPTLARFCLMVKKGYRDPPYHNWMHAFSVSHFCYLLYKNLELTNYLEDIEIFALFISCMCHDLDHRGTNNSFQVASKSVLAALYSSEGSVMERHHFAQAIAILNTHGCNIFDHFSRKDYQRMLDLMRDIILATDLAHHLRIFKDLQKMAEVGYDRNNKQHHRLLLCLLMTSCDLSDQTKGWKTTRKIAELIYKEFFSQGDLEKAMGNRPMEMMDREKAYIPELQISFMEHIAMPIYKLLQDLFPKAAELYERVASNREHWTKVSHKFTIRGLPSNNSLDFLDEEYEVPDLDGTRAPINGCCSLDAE
Sequence of PDE3 from human platelets (Q14432 whole entry): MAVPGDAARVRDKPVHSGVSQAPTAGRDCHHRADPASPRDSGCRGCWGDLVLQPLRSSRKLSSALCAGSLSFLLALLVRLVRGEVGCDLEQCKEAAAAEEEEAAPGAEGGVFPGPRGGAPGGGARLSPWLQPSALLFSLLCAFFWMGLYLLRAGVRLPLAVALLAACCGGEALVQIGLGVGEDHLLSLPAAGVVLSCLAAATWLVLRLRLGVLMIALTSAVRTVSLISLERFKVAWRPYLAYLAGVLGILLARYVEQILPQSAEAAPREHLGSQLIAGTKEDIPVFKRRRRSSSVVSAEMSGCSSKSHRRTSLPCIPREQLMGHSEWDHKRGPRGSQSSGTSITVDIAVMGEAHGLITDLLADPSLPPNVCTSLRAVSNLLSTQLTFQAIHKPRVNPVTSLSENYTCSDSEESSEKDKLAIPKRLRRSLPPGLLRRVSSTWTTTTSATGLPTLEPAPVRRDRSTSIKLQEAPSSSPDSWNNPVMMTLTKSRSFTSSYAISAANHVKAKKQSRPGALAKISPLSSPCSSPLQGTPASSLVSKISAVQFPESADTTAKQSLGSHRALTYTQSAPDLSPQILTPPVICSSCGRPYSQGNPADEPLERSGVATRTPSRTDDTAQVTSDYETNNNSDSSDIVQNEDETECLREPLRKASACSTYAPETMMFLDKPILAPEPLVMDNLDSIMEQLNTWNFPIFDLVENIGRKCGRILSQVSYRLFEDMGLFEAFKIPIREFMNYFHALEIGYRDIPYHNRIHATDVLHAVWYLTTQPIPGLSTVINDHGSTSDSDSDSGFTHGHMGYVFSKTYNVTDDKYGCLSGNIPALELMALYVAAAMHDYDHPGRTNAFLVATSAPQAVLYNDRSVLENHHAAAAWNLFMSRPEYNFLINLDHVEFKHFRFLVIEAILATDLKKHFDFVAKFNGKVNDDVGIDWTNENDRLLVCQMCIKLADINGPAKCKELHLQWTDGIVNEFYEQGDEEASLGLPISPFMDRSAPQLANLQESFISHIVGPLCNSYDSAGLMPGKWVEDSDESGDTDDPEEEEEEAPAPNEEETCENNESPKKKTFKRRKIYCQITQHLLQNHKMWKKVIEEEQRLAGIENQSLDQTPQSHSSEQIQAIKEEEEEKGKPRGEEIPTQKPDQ

PDE Specificity Ratio PDE4/PDE5 [5] [fold]	PDE Specificity Ratio PDE4/PDE3 [6] [fold]	PDE Specificity Ratio PDE4/PDE6 [7] [fold]	PDE Specificity Ratio PDE4/PDE2 (human PDE2) [fold]	PDE Specificity Ratio PDE4/PDE1 (bovine PDE1) [fold]	Compound	solid-state transformation after full adsorption/desorption cycle (XRPD) [1]	mass change of the starting mass of the sample [1]	hygroscopicity [1]	Analysis by XRPD (resulting form) ([2]; 40 °C / 75% RH, 4 weeks)	Analysis by XRPD (resulting form) [2, 8]	Analysis by XRPD (resulting form) [2, 9]	Analysis by XRPD (resulting form) [2, 10]	Analysis by XRPD (resulting form) [2, 11]	physical stability upon compression (XRPD) [3]	Analysis by XRPD (resulting form) [4]
					CCOc1cc(C(CS(C)(=O)=O)N2C(=O)c3cccc(NC(C)=O)c3C2=O)ccc1OC (single isomer, unassigned; (+)) [Form A, (+)-2-[1-(3-ethoxy-4-methoxyphenyl)-2-methylsulfonylethyl]-4-acetylaminoisoindoline-1,3-dione]	none of the forms analyzed underwent substantial solid-state transformation	about 0.4%	substantially nonhygroscopic	stable	stable	stable	converts to Form C	stable	substantially physically stable	Form B
					CCOc1cc(C(CS(C)(=O)=O)N2C(=O)c3cccc(NC(C)=O)c3C2=O)ccc1OC (single isomer, unassigned; (+)) [Form B, (+)-2-[1-(3-ethoxy-4-methoxyphenyl)-2-methylsulfonylethyl]-4-acetylaminoisoindoline-1,3-dione]	none of the forms analyzed underwent substantial solid-state transformation	about 0.6%	substantially nonhygroscopic	stable	stable	stable	converts to Form C	stable	substantially physically stable	
					CCOc1cc(C(CS(C)(=O)=O)N2C(=O)c3cccc(NC(C)=O)c3C2=O)ccc1OC (single isomer, unassigned; (+)) [Form C, (+)-2-[1-(3-ethoxy-4-methoxyphenyl)-2-methylsulfonylethyl]-4-acetylaminoisoindoline-1,3-dione]	none of the forms analyzed underwent substantial solid-state transformation	about 0.5%	substantially nonhygroscopic	stable	stable	stable	stable	stable	substantially physically stable	Form C
					CCOc1cc(C(CS(C)(=O)=O)N2C(=O)c3cccc(NC(C)=O)c3C2=O)ccc1OC (single isomer, unassigned; (+)) [Form D, (+)-2-[1-(3-ethoxy-4-methoxyphenyl)-2-methylsulfonylethyl]-4-acetylaminoisoindoline-1,3-dione]	none of the forms analyzed underwent substantial solid-state transformation	about 1.5%	slightly hygroscopic	stable	converts to Form B	converts to Form B	converts to Form C	converts to Form B	substantially physically stable	Form B
					CCOc1cc(C(CS(C)(=O)=O)N2C(=O)c3cccc(NC(C)=O)c3C2=O)ccc1OC (single isomer, unassigned; (+)) [Form E, (+)-2-[1-(3-ethoxy-4-methoxyphenyl)-2-methylsulfonylethyl]-4-acetylaminoisoindoline-1,3-dione]	none of the forms analyzed underwent substantial solid-state transformation	about 5.1%	hygroscopic							Form B
					CCOc1cc(C(CS(C)(=O)=O)N2C(=O)c3cccc(NC(C)=O)c3C2=O)ccc1OC (single isomer, unassigned; (+)) [Form F, (+)-2-[1-(3-ethoxy-4-methoxyphenyl)-2-methylsulfonylethyl]-4-acetylaminoisoindoline-1,3-dione]	none of the forms analyzed underwent substantial solid-state transformation	about 0.2%	substantially nonhygroscopic							stable; also recorded: Form F
					CCOc1cc(C(CS(C)(=O)=O)N2C(=O)c3cccc(NC(C)=O)c3C2=O)ccc1OC (single isomer, unassigned; (+)) [Form G, (+)-2-[1-(3-ethoxy-4-methoxyphenyl)-2-methylsulfonylethyl]-4-acetylaminoisoindoline-1,3-dione]	none of the forms analyzed underwent substantial solid-state transformation	about 0.4%	substantially nonhygroscopic							converts to Form B
>39000	>45	>250	>260	>50	CCOc1cc([C@H](CS(C)(=O)=O)N2C(=O)c3cccc(NC(C)=O)c3C2=O)ccc1OC [Compound B]										
